PubChem BioAssay (NCI)
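Where inhibition never reached the appropriate level, the endpoint shown equals the highest concentration tested. Otherwise, values were interpolated linearly from a five-concentration, 48-hour dose response in 96-well plates. The concentration for 50% growth inhibition is given as GI50. TGI denotes the concentration required for complete inhibition of growth.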

Experiments:
Assay in all cases: DTP human tumour cell line panel, 48 h
SW-620 colon = system: SW-620 colon
IGROV1 ovarian = system: IGROV1 ovarian
HCC-2998 colon = system: HCC-2998 colon
K-562 leukemia = system: K-562 leukemia
NCI/ADR-RES ovarian = system: NCI/ADR-RES ovarian
ACHN renal = system: ACHN renal
RPMI-8226 leukemia = system: RPMI-8226 leukemia
OVCAR-8 ovarian = system: OVCAR-8 ovarian
SK-MEL-28 melanoma = system: SK-MEL-28 melanoma
SF-539 CNS = system: SF-539 CNS

CCCc1cc(=O)[nH]c(-n2nc(C)cc2C)n1
GI50 (SW-620 colon): 3.93 µM
TGI (SW-620 colon): > 100 µM
GI50 (IGROV1 ovarian): 2.31 µM
TGI (IGROV1 ovarian): > 100 µM
GI50 (HCC-2998 colon): 14.3 µM
TGI (HCC-2998 colon): > 100 µM
GI50 (K-562 leukemia): 3.4 µM
TGI (K-562 leukemia): > 100 µM
GI50 (NCI/ADR-RES ovarian): 2.73 µM
TGI (NCI/ADR-RES ovarian): > 100 µM
GI50 (ACHN renal): 3.97 µM
TGI (ACHN renal): > 100 µM
GI50 (RPMI-8226 leukemia): 5.16 µM
TGI (RPMI-8226 leukemia): 28.4 µM
GI50 (OVCAR-8 ovarian): 2.41 µM
TGI (OVCAR-8 ovarian): > 100 µM
GI50 (SK-MEL-28 melanoma): 3.8 µM
TGI (SK-MEL-28 melanoma): 40.4 µM
GI50 (SF-539 CNS): 2.99 µM
TGI (SF-539 CNS): > 100 µM

CNCCCn1c2c(c3ccc([N+](=O)[O-])cc3c1=O)C(=O)c1cc(OC)cnc1-2
GI50 (SW-620 colon): 0.0349 µM
TGI (SW-620 colon): 1.12 µM
GI50 (IGROV1 ovarian): 0.205 µM
TGI (IGROV1 ovarian): 2 µM
GI50 (HCC-2998 colon): 0.204 µM
TGI (HCC-2998 colon): 1.06 µM
GI50 (K-562 leukemia): 0.0435 µM
TGI (K-562 leukemia): 1.53 µM
GI50 (NCI/ADR-RES ovarian): 0.0613 µM
TGI (NCI/ADR-RES ovarian): 1.08 µM
GI50 (ACHN renal): 0.0361 µM
TGI (ACHN renal): 0.149 µM
GI50 (RPMI-8226 leukemia): 0.0764 µM
TGI (RPMI-8226 leukemia): 0.527 µM
GI50 (OVCAR-8 ovarian): 0.0861 µM
TGI (OVCAR-8 ovarian): 1.81 µM
GI50 (SK-MEL-28 melanoma): 0.387 µM
TGI (SK-MEL-28 melanoma): 2.1 µM
GI50 (SF-539 CNS): 0.0505 µM
TGI (SF-539 CNS): 0.567 µM

COC(=O)c1ccccc1OCc1cc(=O)oc2ccc(C)cc12
TGI (SW-620 colon): > 100 µM
TGI (IGROV1 ovarian): > 100 µM
TGI (HCC-2998 colon): > 100 µM
TGI (K-562 leukemia): > 100 µM
TGI (NCI/ADR-RES ovarian): > 100 µM
TGI (ACHN renal): > 100 µM
TGI (RPMI-8226 leukemia): > 100 µM
TGI (OVCAR-8 ovarian): > 100 µM
TGI (SK-MEL-28 melanoma): > 100 µM
TGI (SF-539 CNS): 78.5 µM

O=C(O)C1OC1(c1cccc(Cl)c1)c1ccccc1Cl (stereo not given)
TGI (SW-620 colon): > 100 µM
TGI (IGROV1 ovarian): > 100 µM
TGI (HCC-2998 colon): > 100 µM
TGI (K-562 leukemia): 87.6 µM
TGI (NCI/ADR-RES ovarian): 47.3 µM
TGI (ACHN renal): > 100 µM
TGI (RPMI-8226 leukemia): 94.8 µM
TGI (OVCAR-8 ovarian): > 100 µM
TGI (SK-MEL-28 melanoma): 61.3 µM
TGI (SF-539 CNS): 43.7 µM

CC1(N)CCN(c2cccnc2NC(=O)c2nc(-c3ncccc3C(F)(F)F)cnc2N)CC1
GI50 (SW-620 colon): 28.4 µM
TGI (SW-620 colon): > 100 µM
GI50 (IGROV1 ovarian): 3.67 µM
TGI (IGROV1 ovarian): > 100 µM
GI50 (HCC-2998 colon): > 100 µM
TGI (HCC-2998 colon): > 100 µM
GI50 (K-562 leukemia): 22.3 µM
TGI (K-562 leukemia): > 100 µM
GI50 (NCI/ADR-RES ovarian): 68.7 µM
TGI (NCI/ADR-RES ovarian): > 100 µM
GI50 (ACHN renal): 19.2 µM
TGI (ACHN renal): > 100 µM
GI50 (RPMI-8226 leukemia): 24.4 µM
TGI (RPMI-8226 leukemia): > 100 µM
GI50 (OVCAR-8 ovarian): 40.2 µM
TGI (OVCAR-8 ovarian): > 100 µM
GI50 (SK-MEL-28 melanoma): 25 µM
TGI (SK-MEL-28 melanoma): 85.6 µM
GI50 (SF-539 CNS): 14.4 µM
TGI (SF-539 CNS): 33.7 µM

Cc1ccc(-c2nc(C#N)c(S(=O)(=O)n3nc(C)cc3N)o2)cc1
GI50 (IGROV1 ovarian): 2.99 µM
TGI (IGROV1 ovarian): 8.28 µM
GI50 (HCC-2998 colon): 19.5 µM
TGI (HCC-2998 colon): 38 µM
GI50 (K-562 leukemia): 1.25 µM
TGI (K-562 leukemia): 4.3 µM
GI50 (NCI/ADR-RES ovarian): 19 µM
TGI (NCI/ADR-RES ovarian): 78.5 µM
GI50 (ACHN renal): 1.91 µM
TGI (ACHN renal): 3.38 µM
GI50 (RPMI-8226 leukemia): 3.07 µM
TGI (RPMI-8226 leukemia): 10.1 µM
GI50 (OVCAR-8 ovarian): 4.66 µM
TGI (OVCAR-8 ovarian): 20.9 µM
GI50 (SK-MEL-28 melanoma): 12.7 µM
TGI (SK-MEL-28 melanoma): 25.6 µM
GI50 (SF-539 CNS): 5.07 µM
TGI (SF-539 CNS): 17.4 µM

COc1ccc2c(=O)cc(-c3ccncc3)oc2c1OC
TGI (SW-620 colon): > 100 µM
TGI (IGROV1 ovarian): 78.1 µM
TGI (HCC-2998 colon): 48.4 µM
TGI (K-562 leukemia): > 100 µM
TGI (NCI/ADR-RES ovarian): > 100 µM
TGI (ACHN renal): > 100 µM
TGI (RPMI-8226 leukemia): > 100 µM
TGI (OVCAR-8 ovarian): > 100 µM
TGI (SK-MEL-28 melanoma): 93.1 µM

CC1OC(n2c3ccccc3c3c4c(c5c6ccccc6[nH]c5c32)C(=O)N(CCN[C@@H]2CCC[C@H]2N)C4=O)CC(O)C1O (stereo not given in full)
GI50 (SW-620 colon): 1.05 µM
TGI (SW-620 colon): 5.71 µM
GI50 (IGROV1 ovarian): 1.87 µM
TGI (IGROV1 ovarian): 9.68 µM
GI50 (HCC-2998 colon): 3.23 µM
TGI (HCC-2998 colon): 11.4 µM
GI50 (K-562 leukemia): 0.85 µM
TGI (K-562 leukemia): 2.76 µM
GI50 (NCI/ADR-RES ovarian): > 50 µM
TGI (NCI/ADR-RES ovarian): > 50 µM
GI50 (ACHN renal): 2.97 µM
TGI (ACHN renal): 10.5 µM
GI50 (RPMI-8226 leukemia): 1.14 µM
TGI (RPMI-8226 leukemia): 2.89 µM
GI50 (OVCAR-8 ovarian): 1.93 µM
TGI (OVCAR-8 ovarian): 9.11 µM
GI50 (SK-MEL-28 melanoma): 2.65 µM
TGI (SK-MEL-28 melanoma): 9.59 µM
